Results: patent publication US11639350B2, “Heteroaryldihydropyrimidine derivatives and methods of treating hepatitis B infections” (Janssen Pharmaceutica NV, priority 2018, dated 2023)
Like-named read-outs stand apart in the source and are kept apart here.

Key:
HBV = HBV inhibitory activity: HBV DNA in the culture medium of HepG2.2.15 cells by q-PCR; format: cell-based; details: HepG2.2.15 cells, 6 days of compound treatment, HBV DNA in culture medium by q-PCR, highest concentration 10 μM, read-out: EC50
Outline: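 HepG2.2.15 cells in 2% FBS medium, 40,000 per well, treated 6 days with compound (medium refreshed once), eight 3-fold dilutions from 10 μM top. HBV DNA extracted from culture medium and quantified by q-PCR; EC50 averaged over repeats. Cytotoxicity run in parallel at 5,000 cells per well, top 100 μM, giving CC50.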

[1] = Cytotoxicity determination in HepG2.2.15 cells (CCK-8); format: cell-based; details: human, 6 days of compound treatment, CCK-8, highest concentration 100 μM
Outline: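 HepG2.2.15 cells seeded at 5,000 cells/well in 2% FBS medium, incubated overnight at 37° C., then treated 6 days with compounds (8 points, 3-fold dilutions, top 100 μM), medium refreshed once midway. CCK-8 added for 2.5 h; A450 read against 630 nm reference; CC50 calculated, averaged over repeats.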

[2] = Hepatitis B virus, HepG2.2.15, 144 h

SMILES | EC50 (HBV; [2]) [µM] | CC50 at 6 days [1] [µM] | EC50 (HBV) [µM]
COC(=O)C1=C([C@H]2CC[C@H](NS(=O)(=O)C3CN(C)C3)CC2)NC(c2nccs2)=NC1c1ccc(F)c(F)c1Cl (single isomer, unassigned) [Compound 251B, (trans)-Methyl 4-(2-chloro-3,4-difluorophenyl)-6-(4-(1-methylazetidine-3-sulfonamido)cyclohexyl)-2-(thiazol-2-yl)-1,4-dihydropyrimidine-5-carboxylate] | 0.103 | 8.7 | 
COC(=O)C1=C(C23CC(NS(C)(=O)=O)(C2)C3)NC(c2nccs2)=NC1c1ccc(F)cc1Cl (single isomer, unassigned) [Compound 372Y, Methyl 4-(2-chloro-4-fluorophenyl)-6-(3-(methylsulfonamido)bicyclo[1.1.1]pentan-1-yl)-2-(thiazol-2-yl)-1,4-dihydropyrimidine-5-carboxylate] | 0.015 | 31.8 | 
COC(=O)C1=C(C2CCN(S(C)(=O)=O)CC2)NC(c2nccs2)=NC1c1cccc(F)c1Cl (single isomer, unassigned) [Compound 112B, Methyl 4-(2-chloro-3-fluorophenyl)-6-(1-(methylsulfonyl)-piperidin-4-yl)-2-(thiazol-2-yl)-1,4-dihydropyrimidine-5-carboxylate] | 0.95 | 8.2 | 
COC(=O)C1=C(C2CCN(S(C)(=N)=O)CC2)NC(c2nccs2)=NC1c1ccc(F)cc1Cl (single isomer, unassigned) [Compound 401Y, Methyl 4-(2-chloro-4-fluorophenyl)-6-(1-(S-methylsulfonimidoyl)piperidin-4-yl)-2-(thiazol-2-yl)-1,4-dihydropyrimidine-5-carboxylate] | 0.024 | 60 | 
COC(=O)C1=C(C2CCN(S(=O)(=O)C3CCC(C(=O)OC(C)(C)C)CC3)CC2)NC(c2nccs2)=NC1c1ccc(F)cc1Cl (single isomer, unassigned) [Compound 312X, Methyl 6-(1-((4-(tert-butoxycarbonyl)cyclohexyl)sulfonyl)-piperidin-4-yl)-4-(2-chloro-4-fluorophenyl)-2-(thiazol-2-yl)-1,4-dihydropyrimidine-5-carboxylate] | 0.097 | > 100 | 
CNS(=O)(=O)[C@H]1CC[C@H](C2=C(C(=O)OC)C(c3ccc(F)c(F)c3Cl)N=C(c3ncc(F)cc3F)N2)CC1 (single isomer, unassigned) [Compound 168A, methyl 4-(2-chloro-3,4-difluorophenyl)-2-(3,5-difluoropyridin-2-yl)-6-((trans)-4-(N-methylsulfamoyl)cyclohexyl)-1,4-dihydropyrimidine-5-carboxylate] | 0.006 | 12.5 | 
COC(=O)C1=C([C@H]2CC[C@H](N(CCO)S(C)(=O)=O)CC2)NC(c2nccs2)=NC1c1ccc(F)c(F)c1Cl (single isomer, unassigned) [Compound 315D, (trans)-Methyl 4-(2-chloro-3,4-difluorophenyl)-6-(4-(N-(2-hydroxyethyl)methylsulfonamido)cyclohexyl)-2-(thiazol-2-yl)-1,4-dihydropyrimidine-5-carboxylate] | 0.025 | 12.6 | 
COC(=O)C1=C(C2CCN(S(C)(=N)=O)CC2)NC(c2nccs2)=NC1c1ccc(F)c(F)c1Cl (centres unmarked) [Compound 205A, methyl 4-(2-chloro-3,4-difluorophenyl)-6-(1-(S-methylsulfonimidoyl)piperidin-4-yl)-2-(thiazol-2-yl)-1,4-dihydropyrimidine-5-carboxylate] |  | 42.3 | 0.007
CCOC(=O)C1=C([C@H]2CC[C@H](C(=O)O)CC2)NC(c2nccs2)=NC1c1ccc(F)c(F)c1Cl (single isomer, unassigned) [Compound 345A, (trans)-(R*)-4-(6-(2-Chloro-3,4-difluorophenyl)-5-(ethoxycarbonyl)-2-(thiazol-2-yl)-3,6-dihydropyrimidin-4-yl)cyclohexanecarboxylic Acid] | 0.044 | 34.1 | 
CCNS(=O)(=O)N1CC(C2=C(C(=O)OC)C(c3ccc(F)cc3Cl)N=C(c3nccs3)N2)C1 (centres unmarked) [Compound 81, 4-(2-Chloro-4-fluoro-phenyl)-6-(1-ethylsulfamoyl-azetidin-3-yl)-2-thiazol-2-yl-1,4-dihydro-pyrimidine-5-carboxylic Acid Methyl Ester] | 0.119 | 10.5 | 
COCCNS(=O)(=O)N1CCC(C2=C(C(=O)OC)C(c3ccc(F)cc3Cl)N=C(c3nccs3)N2)CC1 (single isomer, unassigned) [Compound 268B, Methyl 4-(2-chloro-4-fluorophenyl)-6-(1-(N-(2-methoxyethyl)-sulfamoyl)piperidin-4-yl)-2-(thiazol-2-yl)-1,4-dihydropyrimidine-5-carboxylate] | 0.059 | 30.7 | 
COC(=O)C1=C([C@H]2CC[C@H](N(CC(=O)O)S(C)(=O)=O)CC2)NC(c2nccs2)=NC1c1ccc(F)cc1Cl (relative stereo) [Compound 139, 2-(N-(trans-4-(6-(2-chloro-4-fluorophenyl)-5-(methoxycarbonyl)-2-(thiazol-2-yl)-3,6-dihydropyrimidin-4-yl)cyclohexyl)methylsulfonamido)acetic Acid] | 0.112 | 75.6 | 
COC(=O)C1=C([C@@H]2CCN(S(=O)(=O)CC(F)(F)F)C2)NC(c2nccs2)=NC1c1ccc(F)cc1Cl (stereo partly drawn) [Compound 364, Methyl 4-(2-chloro-4-fluorophenyl)-2-(thiazol-2-yl)-6-((R)-1-((2,2,2-trifluoroethyl)sulfonyl)pyrrolidin-3-yl)-1,4-dihydropyrimidine-5-carboxylate] | 0.208 | > 100 | 
COC(=O)C1=C(C2CCN(S(C)(=O)=O)CC2)NC(c2nccs2)=NC1c1ccc(F)c(F)c1Cl (single isomer, unassigned) [Compound 59B, Methyl 4-(2-chloro-3,4-difluorophenyl)-6-(1-(methylsulfonyl)-piperidin-4-yl)-2-(thiazol-2-yl)-1,4-dihydropyrimidine-5-carboxylate] | 0.388 | 27.9 | 
CCOC(=O)C1=C(C2CCCCC2)NC(c2nccs2)=NC1c1ccc(F)cc1Cl (single isomer, unassigned) [Compound 47A, Ethyl 4-(2-chloro-4-fluorophenyl)-6-cyclohexyl-2-(thiazol-2-yl)-1,4-dihydro-pyrimidine-5-carboxylate] | 0.276 | 30.9 | 
COC(=O)C1=C([C@H]2CC[C@H](S(=O)(=O)NCCO)CC2)NC(c2nccs2)=NC1c1ccc(F)c(F)c1Cl (single isomer, unassigned) [Compound 291C, (trans)-Methyl 4-(2-chloro-3,4-difluorophenyl)-6-(4-(N-(2-hydroxyethyl)sulfamoyl)cyclohexyl)-2-(thiazol-2-yl)-1,4-dihydropyrimidine-5-carboxylate] | 0.016 | 12 | 
COC(=O)C1=C(C2CCN(C(N)=O)CC2)NC(c2nccs2)=NC1c1ccc(F)cc1Cl (centres unmarked) [Compound 303, Methyl 6-(1-carbamoylpiperidin-4-yl)-4-(2-chloro-4-fluorophenyl)-2-(thiazol-2-yl)-1,4-dihydropyrimidine-5-carboxylate] | 0.054 | > 100 | 
COC(=O)C1=C([C@H]2CC[C@H](C(=O)O)CC2)NC(c2nccs2)=NC1c1ccc(F)c(F)c1Br (stereo partly drawn) [Compound 229B, (trans)-4-(6-(2-Bromo-3,4-difluorophenyl)-5-(methoxycarbonyl)-2-(thiazol-2-yl)-3,6-dihydropyrimidin-4-yl)cyclohexane-carboxylic Acid] | 0.011 | 32.1 | 
COC(=O)C1=C(C2CCOCC2)NC(c2nccs2)=NC1c1ccc(F)cc1Cl (single isomer, unassigned) [Compound 51B, Methyl 4-(2-chloro-4-fluorophenyl)-6-(tetrahydro-2H-pyran-4-yl)-2-(thiazol-2-yl)-1,4-dihydropyrimidine-5-carboxylate] | 0.467 | > 100 | 
COC(=O)C1=C(C2CCN(S(=O)(=O)[C@H]3C[C@H](C(=O)O)C3)CC2)NC(c2nccs2)=NC1c1ccc(F)c(F)c1Br (relative stereo) [Compound 162, trans-3-((4-(−6-(2-Bromo-3,4-difluorophenyl)-5-(methoxycarbonyl)-2-(thiazol-2-yl)-3,6-dihydropyrimidin-4-yl)piperidin-1-yl)sulfonyl)cyclobutanecarboxylic Acid] | 0.059 | 34.5 | 
COC(=O)C1=C(C2CC(C(=O)OC)C2)NC(c2nccs2)=NC1c1ccc(F)cc1Cl (single isomer, unassigned) [Compound 85C, 4-(2-Chloro-4-fluoro-phenyl)-6-(3-methoxycarbonyl-cyclobutyl)-2-thiazol-2-yl-1,4-dihydro-pyrimidine-5-carboxylic Acid Methyl Ester] | 0.6 | 95.4 | 
COC(=O)C1=C(C2CCN(S(=O)(=O)c3cnn(C)c3)CC2)NC(c2nccs2)=NC1c1ccc(F)cc1Cl (centres unmarked) [Compound 165, Methyl 4-(2-chloro-4-fluorophenyl)-6-(1-((1-methyl-1H-pyrazol-4-yl)sulfonyl)piperidin-4-yl)-2-(thiazol-2-yl)-1,4-dihydropyrimidine-5-carboxylate] | 0.012 | > 100 | 
